The text below walks through data of patent US20080207614A1, “QUINAZOLINE DERIVATIVES FOR THE TREATMENT AND PREVENTION OF DIABETES AND OBESITY” (SK CHEMICALS CO., LTD., priority 2004, published 2008).

SMILES strings stand for the structures.

This test has as its system AMPK. As to the kind of experiment: Measurement of AMPK activity by Western blot in C2C12 cells. The class given is cell-based. The arrangement: key to AMPK activity (degree of phosphorylation of serine-79 and threonine-172): fold increase in threonine-172 phosphorylation. The conditions noted are these: 10 μM for 50 minutes, no superscript: Western blot of serine-79 and threonine-172 phosphorylation. As to the method: C2C12 cells were cultured and differentiated in the same manner as in Experimental Example 1. Treatment with the test materials was also performed in the same manner as in Experimental Example 1 (10 μM for 50 minutes). The culture medium was removed and the cells were washed for 2 times with PBS and protein extracts were obtained using a lysis buffer (50 mM tris-HCl, pH 7.4, 1% NP-40, 0.25% sodium deoxycholate, 150 mM NaCl, 1 mM EDTA, 1 mM PMSF, 1 mM sodium o-vanadate, 1 mM NaF, 1 μg/mL apronitin, 1 μg/mL leu-peptin, 1 μg/mL pepstatin). The AMPK activity was determined from Western blot analysis of the degree of phosphorylation of serine-79 […] acetyl CoA carboxylase and the degree of phosphorylation of threonine-172. The amount of ERK (extracellular signal regulated protein kinase) was confirmed by Western blot in order to quantify the proteins.
The result of Western blot analysis is given in Table 3 below, wherein “strong” means that the degree of phosphorylation of threonine-172 increased by 3 times or more, “mild” means that the degree of phosphorylation of threonine-172 increased by 1 to 3 times and “weak” means that the degree of phosphorylation of threonine-172 increased by less than 1 time.
Background: In western blotting, separated proteins are transferred to a membrane and probed.
`COc1cc(OC)c(CNc2nc(N3CCCCC3)nc3ccccc23)c(OC)c1` [Compound 316, (2-Piperidino-1-ylquinazolino-4-yl)-(2,4,6-trimethoxybenzyl)-amine]: the “AMPK activity (degree of phosphorylation of serine-79 and threonine-172)” value (shortened to “AMPK activity”) amounted to 1.2.
On to `COc1cc(CNc2nc(-c3cccs3)nc3ccccc23)cc(OC)c1` [Compound 354, (3,5-Dimethoxybenzyl)-(2-thiopenyl-2-ylquinazolino-4-yl)-amine], for which the “AMPK activity” value amounted to 0.6.
Regarding `COc1cc(CNc2nc(N3CCN(C)CC3)nc3ccccc23)cc(OC)c1OC` [Compound 314, [2-(4-Methylpiperazino-1-yl)-quinazolino-4-yl]-(3,4,5-trimethoxybenzyl)-amine], the “AMPK activity” value was 0.2.
As to `COc1cc(OC)c(CNc2nc(-c3cccs3)nc3ccccc23)c(OC)c1` [Compound 359, (2-Thiopenyl-2-ylquinazolino-4-yl)-(2,4,6-trimethoxybenzyl)-amine], the “AMPK activity” value is 0.9.
As for `COc1cc(CNc2nc(N3CCOCC3)nc3ccccc23)cc(OC)c1OC` [Compound 313, (2-Morpholino-4-ylquinazolino-4-yl)-(3,4,5-trimethoxybenzyl)-amine], the “AMPK activity” value is reported as 0.1.
As to `COc1cc(CNc2nc(C(OC)c3ccccc3)nc3ccccc23)cc(OC)c1OC` (stereo not shown) [Compound 367, [2-(Methoxyphenylmethyl)-quinazolino-4-yl]-(3,4,5-trimethoxybenzyl)-amine], the “AMPK activity” value turned out to be 2.2.
Turning to `COc1ccc(OC)c(CNc2nc(-c3ccco3)nc3ccccc23)c1` [Compound 347, (2,5-Dimethoxybenzyl)-(2-furano-2-ylquinazolino-4-yl)-amine], the “AMPK activity” value turned out to be 1.2.
Regarding `COc1cccc(CNc2nc(N3CCOCC3)nc3ccccc23)c1` [Compound 281, (3-Methoxybenzyl)-(2-morpholino-4-ylquinazolino-4-yl)-amine], the “AMPK activity” value is 0.9.
Consider `c1ccc2c(NCc3ccc4c(c3)OCO4)nc(C3CC3)nc2c1` [Compound 385, Benzo[1,3]dioxol-5-ylmethyl-(2-cyclopropylquinazolino-4-yl)-amine], for which the “AMPK activity” value was 2.8.
Then `COc1cc(OC)c(CNc2nc(N3CCOCC3)nc3ccccc23)c(OC)c1` [Compound 317, (2-Morpholino-4-ylquinazolino-4-yl)-(2,4,6-trimethoxybenzyl)-amine], with 0.3; and `COc1ccc(CNc2nc(N3CCCCC3)nc3ccccc23)cc1` [Compound 284, (4-Methoxybenzyl)-(2-piperidino-1-ylquinazolino-4-yl)-amine], with 1.4.
In the case of `c1csc(-c2nc(NCc3ccc4c(c3)OCO4)c3ccccc3n2)c1` [Compound 352, Benzo[1,3]dioxol-5-ylmethyl-(2-thiopenyl-2-ylquinazolino-4-yl)-amine], the “AMPK activity” value is listed as 0.5.
With `COc1cc(OC)c(CNc2nc(N3CCCC3)nc3ccccc23)c(OC)c1` [Compound 315, (2-Pyrrolidino-1-ylquinazolino-4-yl)-(2,4,6-trimethoxybenzyl)-amine], the “AMPK activity” value stood at 0.4.
With `CCCc1nc(NCc2ccccc2OC)c2ccccc2n1` [Compound 393, (2-Methoxybenzyl)-(2-propylquinazolino-4-yl)-amine], the “AMPK activity” value was determined as 1.0.
Turning to `COc1ccc(CNc2nc(N3CCN(C)CC3)nc3ccccc23)c(OC)c1` [Compound 294, (2,4-Dimethoxybenzyl)-[2-(4-methylpiperazino-1-yl)-quinazolino-4-yl]-amine], the “AMPK activity” value amounted to 0.4.
In the case of `COc1cccc(CNc2nc(-c3cccs3)nc3ccccc23)c1` [Compound 350, (3-Methoxybenzyl)-(2-thiopenyl-2-ylquinazolino-4-yl)-amine], the “AMPK activity” value was determined as 0.6.
Consider `COc1cccc(CNc2nc(C3CC3)nc3ccccc23)c1OC` [Compound 386, (2-Cyclopropylquinazolino-4-yl)-(2,3-dimethoxybenzyl)-amine], for which the “AMPK activity” value stood at 1.3.
As to `COc1ccc(CNc2nc(-c3ccco3)nc3ccccc23)cc1OC` [Compound 344, (3,4-Dimethoxybenzyl)-(2-furano-2-ylquinazolino-4-yl)-amine], the “AMPK activity” value came to 0.4.
For the compound `CCCc1nc(NCc2c(OC)cc(OC)cc2OC)c2ccccc2n1` [Compound 403, (2-Propylquinazolino-4-yl)-(2,4,6-trimethoxybenzyl)-amine], the “AMPK activity” value came to 1.3.
Then `COc1ccc(CNc2nc(N3CCN(C)CC3)nc3ccccc23)cc1` [Compound 286, (4-Methoxybenzyl)-[2-(4-methylpiperazino-1-yl)-quinazolino-4-yl]-amine], with 1.0; and `COc1cccc(CNc2nc(N3CCCCC3)nc3ccccc23)c1` [Compound 280, (3-Methoxybenzyl)-(2-piperidino-1-ylquinazolino-4-yl)-amine], with 1.2.
Take `COc1cccc(CNc2nc(N3CCN(C)CC3)nc3ccccc23)c1OC` [Compound 290, (2,3-Dimethoxybenzyl)-[2-(4-methylpiperazino-1-yl)-quinazolino-4-yl]-amine]: the “AMPK activity” value was determined as 1.0.
The result for `CCOc1nc(NCc2ccc(OC)cc2OC)c2ccccc2n1` [Compound 319, (2,4-Dimethoxybenzyl)-(2-ethoxyquinazolino-4-yl)-amine] reads 1.5; that for `COc1cc(CNc2nc(N3CCCCC3)nc3ccccc23)cc(OC)c1OC` [Compound 312, (2-Piperidino-1-ylquinazolino-4-yl)-(3,4,5-trimethoxybenzyl)-amine], 0.3.
In the case of `COc1cc(CNc2nc(N3CCCC3)nc3ccccc23)cc(OC)c1OC` [Compound 311, (2-Pyrrolidino-1-ylquinazolino-4-yl)-(3,4,5-trimethoxybenzyl)-amine], the “AMPK activity” value worked out at 0.2.
As for `COc1ccc(OC)c(CNc2nc(N3CCOCC3)nc3ccccc23)c1` [Compound 297, (2,5-Dimethoxybenzyl)-(2-morpholino-4-ylquinazolino-4-yl)-amine], the “AMPK activity” value came to 0.8.
In the case of `COc1ccccc1CNc1nc(N2CCOCC2)nc2ccccc12` [Compound 277, (2-Methoxybenzyl)-(2-morpholino-4-ylquinazolino-4-yl)-amine], the “AMPK activity” value was found to be 1.3.
On to `CCCc1nc(NCc2cc(OC)c(OC)c(OC)c2)c2ccccc2n1` [Compound 400, (2-Propylquinazolino-4-yl)-(3,4,5-trimethoxybenzyl)-amine], for which the “AMPK activity” value was 0.4.
In the case of `COc1cc(CNc2nc(-c3cccs3)nc3ccccc23)cc(OC)c1OC` [Compound 356, (2-Thiopenyl-2-ylquinazolino-4-yl)-(3,4,5-trimethoxybenzyl)-amine], the “AMPK activity” value was found to be 1.4.
Turning to `CC(C)c1nc(OCc2ccccc2)c2ccccc2n1` [Compound 415, 4-Benzyloxy-2-isopropylquinazoline], the “AMPK activity” value worked out at 1.1.
As for `COc1cccc(CNc2nc(-c3ccco3)nc3ccccc23)c1OC` [Compound 342, (2,3-Dimethoxybenzyl)-(2-furano-2-ylquinazolino-4-yl)-amine], the “AMPK activity” value is listed as 1.0.
`COc1ccc(CNc2nc(-c3cccs3)nc3ccccc23)cc1` [Compound 351, (4-Methoxybenzyl)-(2-thiopenyl-2-ylquinazolino-4-yl)-amine]: the “AMPK activity” value came to 0.7.
As to `COc1cc(OC)c(CNc2nc(-c3ccco3)nc3ccccc23)c(OC)c1` [Compound 348, (2-Furano-2-ylquinazolino-4-yl)-(2,4,6-trimethoxybenzyl)-amine], the “AMPK activity” value was determined as 1.6.
Take `COc1cc(OC)c(CNc2nc(N3CCN(C)CC3)nc3ccccc23)c(OC)c1` [Compound 318, [2-(4-Methylpiperazino-1-yl)-quinazolino-4-yl]-(2,4,6-trimethoxybenzyl)-amine]: the “AMPK activity” value is on record as 0.5.
Then `COc1cccc(CNc2nc(N3CCCC3)nc3ccccc23)c1OC` [Compound 287, (2,3-Dimethoxybenzyl)-(2-pyrrolidino-1-ylquinazolino-4-yl)-amine], with 1.2.
Take `COc1ccc(OC)c(CNc2nc(-c3cccs3)nc3ccccc23)c1` [Compound 358, (2,5-Dimethoxybenzyl)-(2-thiopenyl-2-ylquinazolino-4-yl)-amine]: the “AMPK activity” value worked out at 0.8.
Take `COc1ccc(CNc2ncnc3ccccc23)cc1OC` [Compound 410, (3,4-Dimethoxybenzyl)-quinazolino-4-ylamine]: the “AMPK activity” value was 1.1.
